Source: US5567692A, “9-[(substituted glycyl) amido)]-6-demethyl-6-deoxytetracyclines” (priority 1995, dated 1996)
Structures can show the parent of a compound that is named as a salt. Where two headings read alike, the source gives them in different places.

Legend:
Type in all cases: cell-based
E. coli UBMS 88-1 Tet B = assay: microbe, parasite or virus in culture; settings: Escherichia coli, UBMS881TETB, 18 h
E. coli PRP1 Tet A = assay: microbe, parasite or virus in culture; settings: Escherichia coli, PRP1TETA, 18 h
E. coli J3272 Tet C = assay: microbe, parasite or virus in culture; settings: Escherichia coli, J3272TETC, 18 h
E. coli UBMS 89-1 Tet M = assay: microbe, parasite or virus in culture; settings: Escherichia coli, UBMS891TETM, 18 h
[1] = system: E. coli UBMS 89-2 Tet sens.; assay: MIC, agar dilution; settings: Escherichia coli, 18 h; E. coli UBMS 89-2 Tet sens.; read-out: MIC
E. coli J2175 = assay: MIC, agar dilution; settings: Escherichia coli, 18 h, read-out: MIC
E. coli BAJ9003 IMP MUT = assay: microbe, parasite or virus in culture; settings: Escherichia coli, BAJ9003IMPMUT, 18 h
E. coli UBMS 90-4 Tet M = assay: microbe, parasite or virus in culture; settings: Escherichia coli, UBMS904TETM, 18 h
E. coli UBMS 90-5 = assay: microbe, parasite or virus in culture; settings: Escherichia coli, UBMS905, 18 h
E. coli #311 (MP) = assay: MIC, agar dilution; settings: Escherichia coli, 18 h
E. coli ATCC 25922 = assay: MIC, agar dilution; settings: Escherichia coli, ATCC25922, 18 h
E. coli J3272 Tet D = assay: microbe, parasite or virus in culture; settings: Escherichia coli, J3272TETD, 18 h
S. marcescens FPOR 8733 = assay: MIC, agar dilution; settings: Serratia marcescens, FPOR8733, 18 h
[2] = system: X. maltophilia NEMC 87210; assay: MIC, agar dilution; settings: Stenotrophomonas maltophilia, NEMC87210, 18 h
[3] = system: Ps. aeruginosa ATCC 27853; assay: MIC, agar dilution; settings: Pseudomonas aeruginosa, ATCC27853, 18 h
S. aureus NEMC 8769 = assay: MIC, agar dilution; settings: Staphylococcus aureus, NEMC8769, 18 h
S. aureus UBMS 88-4 = assay: MIC, agar dilution; settings: Staphylococcus aureus, UBMS884, 18 h
[4] = system: S. aureus UBMS 88-5 Tet M; assay: microbe, parasite or virus in culture; settings: Staphylococcus aureus, UBMS885TETM, 18 h
[5] = system: S. aureus UBMS 88-7 Tet K; assay: microbe, parasite or virus in culture; settings: Staphylococcus aureus, UBMS887TETK, 18 h
[6] = system: S. aureus UBMS 90-1 Tet M; assay: microbe, parasite or virus in culture; settings: Staphylococcus aureus, UBMS901TETM, 18 h
S. aureus UBMS 90-3 = assay: MIC, agar dilution; settings: Staphylococcus aureus, UBMS903, 18 h
[7] = system: S. aureus UBMS 90-2 Tet M; assay: microbe, parasite or virus in culture; settings: Staphylococcus aureus, UBMS902TETM, 18 h
S. aureus IVES 2943 = assay: MIC, agar dilution; settings: Staphylococcus aureus, IVES2943, 18 h
S. aureus ROSE (MP) = assay: MIC, agar dilution; settings: Staphylococcus aureus, 18 h
S. aureus SMITH (MP) = assay: MIC, agar dilution; settings: Staphylococcus aureus, 18 h
S. aureus IVES 1983 = assay: MIC, agar dilution; settings: Staphylococcus aureus, IVES1983, 18 h
S. aureus ATCC 29213 = assay: MIC, agar dilution; settings: Staphylococcus aureus, ATCC29213, 18 h, S. aureus ATCC 29213
[8] = system: S. hemolyticus AVHAH 88-3; assay: MIC, agar dilution; settings: Streptococcus pyogenes, AVHAH883, 18 h
Enterococcus 12201 = assay: MIC, agar dilution; settings: Enterococcus, 12201, 18 h
E. faecalis ATCC 29212 = assay: MIC, agar dilution; settings: Enterococcus faecalis, ATCC29212, 18 h
[9] = system: E. coli MC 4100 Tet sens.; assay: MIC, agar dilution; settings: Escherichia coli, 18 h
[10] = system: E. coli MC 4100 TNIOC Tet B; assay: microbe, parasite or virus in culture; settings: Escherichia coli, 18 h
[11] = E. coli UBMS 90-5, read-out: MIC
[12] = E. coli #311 (MP), read-out: MIC
[13] = Ps. aeruginosa ATCC 27853, read-out: MIC
[14] = S. aureus IVES 1983, read-out: MIC

SMILES | MIC (E. coli UBMS 88-1 Tet B) | MIC (E. coli PRP1 Tet A) | MIC (E. coli J3272 Tet C) | MIC (E. coli UBMS 89-1 Tet M) | MIC (E. coli J2175) | MIC (E. coli BAJ9003 IMP MUT) | MIC (E. coli UBMS 90-4 Tet M) | MIC (E. coli UBMS 90-5; [11]) | MIC (E. coli #311 (MP); [12]) | MIC (E. coli J3272 Tet D) | MIC [2] | MIC [3, 13] | MIC (S. aureus NEMC 8769) | MIC (S. aureus UBMS 88-4) | MIC [4] | MIC [5] | MIC [6] | MIC [7] | MIC (S. aureus IVES 2943) | MIC (S. aureus ATCC 29213) | other results
CNCC(=O)Nc1ccc2c(c1O)C(=O)C1=C(O)[C@]3(O)C(=O)C(C(N)=O)=C(O)[C@@H](N(C)C)C3CC1C2 (stereo partly drawn) [F, [4S-(4alpha,12aalpha)]-4-(Dimethylamino)-1,4,4a,5,5a,6,11,12a-octahydro-3,10,12,12a-tetrahydroxy-9-[[(methylamino)acetyl]amino]-1,11-dioxo-2-naphthacenecarboxamide dihydrochloride] | 1 µg/mL | 4 µg/mL | 4 µg/mL | 0.5 µg/mL | 0.5 µg/mL | 0.5 µg/mL | 0.5 µg/mL | 0.5 µg/mL | 0.5 µg/mL | 0.5 µg/mL | 16 µg/mL | 32 µg/mL | 0.25 µg/mL | 0.5 µg/mL | 1 µg/mL | 16 µg/mL | 0.5 µg/mL | 0.5 µg/mL | > 32 µg/mL | 0.5 µg/mL | MIC [1]: 1 µg/mL; MIC (E. coli ATCC 25922; read-out: MIC): 0.5 µg/mL; MIC (S. marcescens FPOR 8733): 4 µg/mL; MIC (S. aureus UBMS 90-3): 0.5 µg/mL; MIC (S. aureus ROSE (MP)): > 32 µg/mL; MIC (S. aureus SMITH (MP)): 0.5 µg/mL; MIC (S. aureus IVES 1983; [14]): 16 µg/mL; MIC [8]: 1 µg/mL; MIC (Enterococcus 12201): 0.5 µg/mL; MIC (E. faecalis ATCC 29212): 0.5 µg/mL
CN(C)[C@@H]1C(O)=C(C(N)=O)C(=O)[C@@]2(O)C(O)=C3C(=O)c4c(ccc(NC(=O)CNCc5ccccc5)c4O)CC3CC12 (stereo partly drawn) [J, [4S-(4alpha,12aalpha)]-4-(Dimethylamino)-1,4,4a,5,5a,6,11,12a-octahydro-3,10,12,12a-tetrahydroxy-1,11-dioxo-9-[[[(phenylmethyl)amino]acetyl]amino]-2-naphthacenecarboxamide dihydrochloride] | 4 µg/mL | 4 µg/mL | 4 µg/mL | 2 µg/mL | 4 µg/mL | 0.5 µg/mL | 4 µg/mL | 4 µg/mL | 4 µg/mL | 4 µg/mL | 16 µg/mL |  | 1 µg/mL | 1 µg/mL | 2 µg/mL | 4 µg/mL | 4 µg/mL | 1 µg/mL |  | 1 µg/mL | MIC [9]: 0.5 µg/mL; MIC (E. coli ATCC 25922; read-out: MIC): 4 µg/mL; MIC (S. marcescens FPOR 8733; read-out: MIC): > 32 µg/mL; MIC [3]: > 32 µg/mL; MIC (S. aureus UBMS 90-3): 0.5 µg/mL; MIC (S. aureus IVES 2943; S. aureus IVES 2943, read-out: MIC): 4 µg/mL; MIC (S. aureus ROSE (MP); read-out: MIC): 8 µg/mL; MIC (S. aureus SMITH (MP)): 0.5 µg/mL; MIC (S. aureus IVES 1983; [14]): 4 µg/mL; MIC ([8]; S. hemolyticus AVHAH 88-3, read-out: MIC): 4 µg/mL; MIC (Enterococcus 12201): 2 µg/mL; MIC (E. faecalis ATCC 29212): 0.25 µg/mL
CCCCCNCC(=O)Nc1ccc2c(c1O)C(=O)C1=C(O)[C@]3(O)C(=O)C(C(N)=O)=C(O)[C@@H](N(C)C)C3CC1C2 (stereo partly drawn) [K, [4S-(4alpha,12aalpha)]-4-(Dimethylamino)-1,4,4a,5,5a,6,11,12a-octahydro-3,10,12,12a-tetrahydroxy-1,11-dioxo-9-[[(pentylamino)acetyl]amino]-2-naphthacenecarboxamide monohydrochloride] | 1 µg/mL | 0.5 µg/mL | 0.5 µg/mL |  | 0.5 µg/mL |  |  |  |  | 0.5 µg/mL | 1 µg/mL | 32 µg/mL | 0.12 µg/mL |  |  | 2 µg/mL |  |  | 2 µg/mL |  | MIC [9]: 0.5 µg/mL; MIC [10]: 0.5 µg/mL; MIC (E. coli UBMS 90-4 Tet M; E. coli UBMS 90-4 Tet M): 0.5 µg/mL; MIC (E. coli UBMS 90-5): 0.5 µg/mL; MIC (E. coli #311 (MP)): 0.5 µg/mL; MIC (E. coli ATCC 25922): 0.5 µg/mL; MIC (S. marcescens FPOR 8733; read-out: MIC): 4 µg/mL; MIC ([4]; S. aureus UBMS 88-5 Tet M): 0.5 µg/mL; MIC ([6]; S. aureus UBMS 90-1 Tet M): 0.5 µg/mL; MIC (S. aureus ROSE (MP); read-out: MIC): 8 µg/mL; MIC (S. aureus IVES 1983): 2 µg/mL; MIC (S. aureus ATCC 29213; read-out: MIC): 0.5 µg/mL; MIC [8]: 2 µg/mL
CN(C)[C@@H]1C(O)=C(C(N)=O)C(=O)[C@@]2(O)C(O)=C3C(=O)c4c(ccc(NC(=O)CNCc5cccs5)c4O)CC3CC12 (stereo partly drawn) [L, [4S-(4-alpha,12aalpha)]-4-(Dimethylamino)-1,4,4a,5,5a,6,11,12a-octahydro-3,10,12,12a-tetrahydroxy-1,11-dioxo-9-[[[(2-thienylmethyl)amino]acetyl]amino]-2-naphthacenecarboxamide dihydrochloride] | 32 µg/mL | 16 µg/mL | 32 µg/mL | 8 µg/mL | 16 µg/mL | 4 µg/mL | 8 µg/mL | 16 µg/mL | 16 µg/mL | 16 µg/mL | > 32 µg/mL | > 32 µg/mL | 8 µg/mL | 8 µg/mL | 8 µg/mL | 16 µg/mL | 8 µg/mL | 8 µg/mL | 16 µg/mL | 8 µg/mL | MIC [9]: 8 µg/mL; MIC [10]: 32 µg/mL; MIC (E. coli ATCC 25922): 8 µg/mL; MIC (S. marcescens FPOR 8733): > 32 µg/mL; MIC (S. aureus UBMS 90-3; S. aureus UBMS 90-3): 4 µg/mL; MIC (S. aureus ROSE (MP)): 32 µg/mL; MIC (S. aureus SMITH (MP); S. aureus SMITH (MP)): 4 µg/mL; MIC (S. aureus IVES 1983): 16 µg/mL; MIC [8]: 8 µg/mL; MIC (Enterococcus 12201; Enterococcus 12201, read-out: MIC): 8 µg/mL
